Key:
in vitro = conditions: human, CC50 (μM), A549-ACE2; with CPE assays (SARS-CoV-2 WA1, Delta, OC43); not converted for FBS
SARS-CoV-2 USA-WA1/2020 [1] = assay: SARS-CoV-2 immunofluorescence (IF) assay, HeLa-ACE2 (Method 1); type: cell-based; conditions: Severe acute respiratory syndrome coronavirus 2, HeLa-ACE2, SARS-CoV-2 USA-WA1/2020, 2% FBS
[2] = Cytotoxicity, neutral red, Vero E6; type: cell-based; conditions: African green monkey, Vero E6 cells (uninfected toxicity wells), with CPE assay, not converted for FBS
Experimental: Confluent or near-confluent cell culture monolayers of Vero E6 cells are prepared in 96-well disposable microplates the day before testing. Cells are maintained in MEM supplemented with 5% FBS. For antiviral assays the same medium is used but with FBS reduced to 2% and supplemented with 50-μg/ml gentamicin. Compounds are dissolved in DMSO, saline or the diluent requested by the submitter. […] The test compound is prepared at four serial log 10 concentrations, usually 0.1, 1.0, 10, and 100 μg/ml or μM (per sponsor preference). Lower concentrations are used when insufficient compound is supplied. Five microwells are used per dilution: three for infected cultures and two for uninfected toxicity cultures. Controls for the experiment consist of six microwells that are infected and not treated (virus controls) and six that are untreated and uninfected (cell controls) on every plate. A known active drug is tested in parallel as a positive control drug using the same method as is applied for test compounds. The positive control is tested with every test run.
Growth media is removed from the cells and the test compound is applied in 0.1 ml volume to wells at 2× concentration. Virus, normally at ˜60 CCID50 (50% cell culture infectious dose) in 0.1 ml volume is added to the wells designated for virus infection. […] The dye content in each well is quantified using a spectrophotometer at 540 nm wavelength. […]

Huh-luc/neo-ET cells = assay: XTT cell viability assay, Huh-luc/neo-ET; type: cell-based; conditions: XTT, 72 hours, read-out: HCV 1b - TC50
Experimental: (§1) Twenty-four hours after seeding the cells, the cell culture supernatant was removed from each well and replaced with 175 μL fresh complete medium minus G418. Test compounds were evaluated at a high-test concentration of 10 μM and five serial half-logarithmic dilutions in three biological replicates. In three biological replicates, Sofosbuvir was evaluated in parallel at a high-test concentration of 1 μM and five serial half-logarithmic dilutions. Compounds were first serially diluted in DMSO to 400× of each final in-well concentration. An intermediate 8× solution was prepared in a complete medium and then added to the cells in a volume of 25 μL per well. A complete medium containing an equal percentage of DMSO (v/v) was added to vehicle-treated control cells. The final DMSO concentration was 0.25% (v/v) for all samples. The cells were incubated for an additional 72 hours at 37° C./5% CO2, then HCV replication was measured by luciferase activity and cell viability was assessed in parallel using an XTT colorimetric assay.
(§2) Huh-luc/neo-ET cell viability was measured at 72 hours after treatment using the tetrazolium dye XTT (2,3-bis(2-methoxy-4-nitro-5-sulfophenyI)-5[(phenylamino)carbonyl]-2H-tetrazolium hydroxide). Mitochondrial enzymes of metabolically active cells metabolize XTT-tetrazolium to a soluble formazan product. XTT solution was prepared fresh at 1 mg/mL in DMEM. Phenazine methosulfate (PMS) solution was prepared at 0.15 mg/mL in PBS and stored in the dark at −20° C. An XTT/PMS stock was prepared immediately before use by adding 40 μL of PMS per ml of XTT solution. Fifty microliters (50 μL) XTT/PMS were added per well, and the cells were incubated for 4 hours at 37° C. The cell culture plates were then sealed with adhesive plate sealers and shaken gently or inverted several times to mix the soluble formazan product. The formazan product was measured spectrophotometrically by absorbance at 450/650 nm on a Vmax plate reader (Molecular Devices). The raw data in Softmax Pro 5.4.2 software was imported into Microsoft Excel for further analysis. Data are presented as absorbance values (450/650 nm) or the percentage of viable cells relative to vehicle-treated control (mean+1—standard deviation, n=3 biological replicates from one independent experiment).

[3] = XTT cell viability assay, Huh-luc/neo-ET; type: cell-based; conditions: human, Huh-luc/neo-ET cells, with HCV replicon assay, not converted, read-out: CC50
Experimental: as §1, §2

[4] = tested on: SARS-CoV-2 Delta (B.1.617.2); assay: SARS-CoV-2 CPE assay, Vero 76 (Method 2); type: cell-based; conditions: Severe acute respiratory syndrome coronavirus 2, 2% FBS
Influenza A H1N1/WSN/33 = assay: Influenza A virus IF assay, A549 (Method 7)
Experimental: A549 cells were infected with each viral strain at MOI 0.05. After 24 h post-infection with A/WSN/33 cells were fixed with 4% formaldehyde for 30 min. Cells were briefly washed with PBS, then permeabilized with 0.1% Triton X-100 in PBS for 15 minutes. Blocking occurred at room temperature for 1 hour with 0.5% BSA in PBS followed by incubation with the NP antibody (HT103, a gift from Thomas Moran) in 0.5% BSA in PBS for 1 hour at room temperature. Cells were washed with PBS 2× and incubated with a fluorescently-labeled secondary antibody, alexa-fluor-488 (Invitrogen), in 0.5% BSA in PBS with DAPI for 45 min at room temperature. Two washes with PBS were performed before imaging the cells on a Celigo Image Cytometer. Infected cells (488 nm) and total cells (DAPI) were quantified using the Celigo (Nexcelcom) imaging cytometer. Infectivity was measured by the accumulation of viral NP protein (fluorescence accumulation). Percent infection was quantified as ((Infected cells/Total cells)−Background)*100 and the DMSO control was then set to 100% infection for analysis. Data was fit using nonlinear regression and IC50s for each experiment were determined using GraphPad Prism version 8.0.2 (San Diego, CA). Cytotoxicity was also performed using the MTT assay (Roche), according to the manufacturer's instructions. […]

[5] = tested on: SARS-CoV-2 Beta (B.1.351); assay: SARS-CoV-2 IF assay, HeLa-ACE2 (Method 1); type: cell-based; conditions: 2% FBS
SARS-CoV-2 USA-WA1/2020 [6] = assay: SARS-CoV-2 viral yield reduction (VYR) assay, Caco-2 (Method 2); type: cell-based; conditions: Severe acute respiratory syndrome coronavirus 2, 2% FBS
From the text: The antiviral assays were cell line based and consisted in transfecting each of the viruses tested in a compatible cell line. Upon infection and after drug treatment, viral survival and cell toxicity were reported from the readout of three different assays: cytopathic effect (CPE), viral yield reduction (VYR), or immunofluorescence (IF).
After sufficient virus replication occurs (3 days for SARS-CoV-2), a sample of supernatant is taken from each infected well (three replicate wells are pooled) and tested immediately or held frozen at −80° C. for later virus titer determination. After maximum CPE is observed, the viable plates are stained with neutral red dye. The incorporated dye content is quantified as described above to generate the EC50 and CC50 values.
Serial 1/10 dilutions of virus are made and plated into 4 replicate wells containing fresh cell monolayers of Vero E6 cells. Plates are then incubated, and cells are scored for presence or absence of virus after distinct CPE is observed, and the CCID50 calculated using the Reed-Muench method (24). […] Dividing EC90 by the CC50 gives the SI value for this test.

CoV229E = assay: Anti-Coronavirus 229E cytoprotection (CPE) assay, MRC-5 (Method 3); type: cell-based, human Coronavirus 229E; conditions: Human coronavirus 229E, MRC5, […], read-out: CoV229E - EC50 (μM)
Vero 76 cells = conditions: with CPE assays (SARS-CoV-2 WA1, Delta), not converted for FBS
[7] = Cytotoxicity, neutral red dye-uptake, HG23; type: cell-based; conditions: human, HG23 cells, with Norwalk Virus CPE assay, not converted
Experimental: Compounds were tested in an assay medium containing 2% fetal bovine serum (FBS). Test compounds were added to cells prior to infection with virus at a multiplicity of infection (MOI) sufficient to induce visible cytopathic effect (CPE). […] Additionally, the EC90 was defined as the concentration required to achieve a 1 log10 reduction in viral titer. Dose-response curves depicting viral CPE (red line) and compound cytotoxicity (purple line) were generated to support these analyses.

## Cc1c(-c2ccc(O)cc2)n(Cc2ccc(OCCN3CCCCC3)cc2)c2ccc(O)cc12 [Pipendoxifene]
In vitro
  CC50: > 10 µM
SARS-CoV-2 USA-WA1/2020 [1]
  EC50: 675 nM
[2]
  CC50: 3200 nM
Huh-luc/neo-ET cells
  CC50: > 10000 nM
[3]
  CC50 at 72 h: > 10000 nM
[4]
  EC50: 2400 nM
Influenza A H1N1/WSN/33
  EC50: 7490 nM
[5]; SARS-CoV-2 Beta (B.1.351)
  EC50: 668 nM
[5]; Severe acute respiratory syndrome coronavirus 2, HeLa-ACE2, SARS-CoV-2 Beta (B.1.351)
  EC50: 1050 nM
SARS-CoV-2 USA-WA1/2020 [6]
  EC50: 540 nM
CoV229E
  EC50: 0.11 to 0.52 µM
Vero 76 cells
  CC50: 3200 nM
[7]
  CC50: 18000 nM

Source: patent US20260124192A1, “COMPOUNDS, COMPOSITIONS, AND METHODS OF TREATING RNA VIRAL INFECTIONS” (priority 2024, published 2026)
